Data as given in patent US20080194666A1, “Combination Treatment Methods” (MEDICAL RESEARCH COUNCIL, priority 2005, published 2008).

Test system: cabbage root fly
Experiment: Swede field trials in Norway, cabbage root fly damage
Type: in vivo
Procedure: An extensive program of non-public field trials, which included five crops of swede were carried out. The field trials design was based around multiple applications of either ECOguard® liquid (garlic juice concentrate) or granules (wood flour granules impregnated with the garlic juice concentrate) and in four out of the five swede trials was referenced against Dimethoate as a standard.

## CNC(=O)CSP(=S)(OC)OC [Dimethoate]
Ga-Fa
  mean saleable yield (cat 1 + 2): 7.27 kg/sample
Mid-Troms
  mean saleable yield (cat 1 + 2): 5.84 kg/sample
Sor Ost
  mean saleable yield (cat 1 + 2): 22.16 kg/sample
Toten
  mean saleable yield (cat 1 + 2): 11.95 kg/sample
In vivo
  Difference of Means, trt=1 (control) subtracted: −0.3100
  cabbage root fly damage versus control: significantly reduced damage
  root damage index (RDI), % Change: −5.8%
  root damage index (RDI), Mean: 43.90
Mean of four sites
  mean saleable yield (cat 1 + 2), Mean: 11.95 kg/sample
Mean of four sites versus control
  mean saleable yield, % Change: +8%
